We go through 34 compounds from patent US6503912B1, “Substituted guanidine derivatives” (Bayer Aktiengesellschaft, priority 1998, dated 2003).

The test system of data set [1] is black bean aphid (Aphis fabae). Put plainly: Aphis Test (Systemic Action). It is filed as in vivo. The note with it: active compound concentration 0.01%, watering of Vicia faba, after 4 days. How it is done: Aphis Test (Systemic Action)
(§1) Solvent: 7 parts by weight of dimethylformamide
(§2) Emulsifier: 1 part by weight of alkylaryl polyglycol ether
(§3) To produce a suitable preparation of active compound, 1 part by weight of active compound is mixed with the stated amount of solvent, and the stated amount of emulsifier, and the concentrate is diluted with water to the desired concentration.
Bean plants (Vicia faba) which are heavily infested by the black bean aphid (Aphis fabae) are watered with in each case 20 ml of the preparation of active compound of the desired concentration so that the preparation of active compound penetrates into the soil without wetting the shoot. The active compound is taken up by the roots and passed on to the shoot.
(§4) After the desired period of time, the kill in % is determined. 100% means that all aphids have been killed; 0% means that none of the aphids has been killed.

The subject of data set [2] is Mosquito larvae (Aedes aegypti). Nature of the data set: Aedes Test. It is filed as in vivo. The note with it: active compound concentration 0.0016%; after 4 hours. The protocol: Solvent: 1000 parts by weight of methanol
To produce a suitable preparation of active compound, 1 part by weight of active compound is mixed with the stated amount of solvent, and the concentrate is diluted with water to the desired concentrations.
Mosquito larvae (Aedes aegypti) are placed into the preparation of active compound of the desired concentration.
After the desired period of time, the effect on the larvae is determined.

Another data set has as its system Aphis fabae. Nature of the data set: Critical Concentration Test/root-systemic Action. It is filed as in vivo. Particulars: 20 ppm in soil; broad beans; leaves populated after 7 days, evaluation after a further 6 days. The protocol: Critical Concentration Test/root-systemic Action
Solvent: 4 parts by weight of acetone
as §2
To produce a suitable preparation of active compound, 1 part by weight of active compound is mixed with the stated amount of solvent, the stated amount of emulsifier is added and the concentrate is diluted with water to the desired concentration.
The preparation of active compound is mixed intimately with soil. The concentration of the active compound in the preparation is virtually immaterial, only the amount by weight of active compound per volume unit of soil, which is stated in ppm (=mg/l), matters. The treated soil is filled into pots which are planted with pregerminated broad beans. Thus, the active compound can be taken up from the soil by the plant roots and transported into the leaves.
After a further 6 days, evaluation is carried out by counting or estimating the dead animals. The root-systemic action of the active compound is deduced from the number of animals killed. It is 100% when all test animals have been killed and 0% when the number of live test insects is identical to that of the untreated control.

For another data set, the system named is Lucilia cuprina larvae. Nature of the data set: Blowfly Larvae Test/development-inhibitory Action. The class given is in vivo. The note with it: active compound concentration 100 ppm; flies hatched after 1.5 times the development period of untreated control. The protocol:
Blowfly Larvae Test/development-inhibitory Action
Test animals: Lucilia cuprina larvae
Solvent: Dimethyl sulfoxide
20 mg of active compound are dissolved in 1 ml of dimethyl sulfoxide, more dilute concentrations are prepared by dilution with Dest.H2O.
About 20 Lucilia cuprina larvae are introduced into a test tube which contains about 1 cm^3 of horse meat and 0.5 ml of the preparation of active compound to be tested. After 24 hours and 48 hours, the effectiveness of the preparation of active compound is determined. The test tubes are transferred into beakers whose bottom is covered with sand. After a further 2 days, the test tubes are removed and the pupae are counted.
The effect of the preparation of active compound is assessed by the number of flies which have hatched after 1.5 times the development period of an untreated control. 100% means that no flies have hatched; 0% means that all flies have hatched normally.

Data set [3] deals with larvae of the army worm (Spodoptera frugiperda). Nature of the data set: Spodoptera Frugiperda Test. The class given is in vivo. Particulars: active compound concentration 0.1%; dipped cabbage leaves; after 7 days. How it is done: Spodoptera Frugiperda Test
as §1, §2
To produce a suitable preparation of active compound, 1 part by weight of active compound is mixed with the stated amounts of solvent and emulsifier, and the concentrate is diluted with water to the desired concentration.
Cabbage leaves (Brassica oleracea) are treated by being dipped into the preparation of active compound of the desired concentration and are populated with larvae of the army worm (Spodoptera frugiperda) whilst the leaves are still moist.
After the desired period of time, the kill in % is determined. 100% means that all larvae have been killed; 0% means that none of the larvae has been killed.

The test system of data set [4] is peach aphid (Myzus persicae). Nature of the data set: Myzus Test. It is filed as in vivo. The note with it: active compound concentration 0.1%; dipped cabbage leaves; after 6 days. How it is done:
as §1, §2, §3
Cabbage leaves (Brassica oleracea) which are heavily infested by the peach aphid (Myzus persicae) are treated by being dipped into the preparation of active compound of the desired concentration.
as §4

Data set [5] relates to mustard beetle larvae (Phaedon cochleariae). Nature of the data set: Phaedon larvae Test. It is filed as in vivo. The note with it: active compound concentration 0.1%; dipped cabbage leaves; after 7 days. How it is done:
as §1, §2
To produce a suitable preparation of active compound, 1 part by weight of active compound is mixed with the stated amount of solvent and the stated amount of emulsifier, and the concentrate is diluted with water to the desired concentration.
Cabbage leaves (Brassica oleracea) are treated by being dipped into the preparation of active compound of the desired concentration and are populated with mustard beetle larvae (Phaedon cochleariae) whilst the leaves are still moist.
After the desired period of time, the kill in % is determined. 100% means that all beetle larvae have been killed; 0% means that none of the beetle larvae has been killed.

Data set [6] concerns larvae of the green rice leaf-hopper (Nephotettix cincticeps). Nature of the data set: Nephotettix Test. It is filed as in vivo. The note with it: active compound concentration 0.1%; dipped rice seedlings; after 6 days. How it is done:
as §1, §2, §3
Rice seedlings (Oryza sativa) are treated by being dipped into the preparation of active compound of the desired concentration and are populated with larvae of the green rice leaf-hopper (Nephotettix cincticeps) while the seedlings are still moist.
After the desired period of time, the kill in % is determined. 100% means that all leaf-hoppers have been killed; 0% means that none of the leaf-hoppers has been killed.

Assay in data set [7]: not given
The source holds these as a separate data set.

For `CCCCCCCCOCN1CCN(Cc2ccc(Cl)nc2)C1=N[N+](=O)[O-]` [Example 5], the “logP (pH = 2.3)” value is reported as 3.55. The compound further yielded a kill in [1] of 95%. Moreover, in [2], the kill turned out to be 100%. Also, the “kill (root-systemic action)” value with Aphis fabae was 100%.

Take `COCn1ccn(Cc2ccc(Cl)nc2)c1=N[N+](=O)[O-]` [Example 9]: the “logP (pH = 2.3)” value was 0.78. The same compound showed a kill in [1] of 100%. The compound also displayed a development-inhibitory effect with Lucilia cuprina larvae of 100%.

As to `CCOCN1CCN(Cc2cnc(Cl)s2)C1=N[N+](=O)[O-]` [Example 17], the “logP (pH = 2.3)” value was found to be 1.40. For the same compound, the kill in data set [3] was determined as 100%. This compound also displayed a kill in [4] of 100%. In data set [5], this compound returned a kill of 100%.

Consider `CC(C)OCN1CCN(Cc2cnc(Cl)s2)C1=N[N+](=O)[O-]` [Example 18], for which the “logP (pH = 2.3)” value turned out to be 1.65. Moreover, the kill in data set [3] was 100%. In data set [4], this compound registered a kill of 100%. The same compound returned a kill in data set [5] of 100%. This compound returned a kill in [6] of 100%.

As for `CCCCCCOCN1CCN(Cc2ccc(Cl)nc2)C1=N[N+](=O)[O-]` [Example 23], the “logP (pH = 2.3)” value turned out to be 2.73.

As to `CC(C)(C)C(=O)OCN1CCN(Cc2ccc(Cl)nc2)C1=N[N+](=O)[O-]` [Example 25], the kill in [3], in data set [4], in data set [5] and in [6] was 100% each time.

For `CC(C)COCN1CCN(Cc2cnc(Cl)s2)C1=N[N+](=O)[O-]` [Example 19], the “logP (pH = 2.3)” value is given as 2.12. This compound displayed a kill in data set [5] of 100%. This compound showed a kill in [6] of 100%.

Regarding `CCN(CC)CCOCN1CCN(Cc2ccc(Cl)nc2)C1=N[N+](=O)[O-]` [Example 43], the “logP (pH = 2.3)” value was 0.70.

Regarding `CC(C)COCn1ccn(Cc2ccc(Cl)nc2)c1=N[N+](=O)[O-]` [Example 15], the kill in [4] and in [6] was 100% in each case.

Take `COCN1CCN(Cc2cnc(Cl)s2)C1=N[N+](=O)[O-]` [Example 16]: the “logP (pH = 2.3)” value is given as 1.14. For the same compound, the kill in [4] is 100%.

On to `CC(C)OCn1ccn(Cc2ccc(Cl)nc2)c1=N[N+](=O)[O-]` [Example 14], for which the kill in data set [4] and in [6] was 100% throughout.

On to `CCCCOCN1CCN(Cc2ccc(Cl)nc2)C1=N[N+](=O)[O-]` [Example 40], for which the “logP (pH = 2.3)” value stood at 1.98.

As to `CC(C)OCN1CCN(Cc2ccc(Cl)nc2)C1=N[N+](=O)[O-]` [Example 12], the kill in data set [3], in data set [4], in data set [5] and in data set [6] was 100% each time. The compound further had a development-inhibitory effect in the data set on Lucilia cuprina larvae of 100%.

Take `CC(=O)OCN1CCN(Cc2ccc(Cl)nc2)C1=N[N+](=O)[O-]` [Example 33]: the kill in data set [3], in data set [5] and in [6] was 100% in each case.

For the compound `COCCOCN1CCN(Cc2ccc(Cl)nc2)C1=NC#N` [Example 31], the “logP (pH = 2.3)” value turned out to be 1.40.

Compound `CCCOCn1ccn(Cc2ccc(Cl)nc2)c1=N[N+](=O)[O-]` [Example 11] registered a kill in [4] of 100%. The compound also showed a development-inhibitory effect in the data set with Lucilia cuprina larvae of 100%.

For the compound `CC(C)(C)COCN1CCN(Cc2ccc(Cl)nc2)C1=N[N+](=O)[O-]` [Example 20], the kill in data set [3] and in [4] was 100% in each case.

Consider `CCC(=O)OCN1CCN(Cc2ccc(Cl)nc2)C1=N[N+](=O)[O-]` [Example 35], for which the “logP (pH = 2.3)” value was found to be 1.50. Also, the kill in [3] was 100%. The kill in data set [5] is listed as 100%.

As to `CC(C)COCN1CCN(Cc2ccc(Cl)nc2)C1=N[N+](=O)[O-]` [Example 13], the “logP (pH = 2.3)” value is recorded as 2.00. This compound also returned a kill in data set [3] of 100%. The same compound had a kill in data set [4] of 100%. For the same compound, in the data set on Lucilia cuprina larvae, the development-inhibitory effect was 100%. In data set [6], the kill came to 100%.

As for `CCCOCN1CCN(Cc2ccc(Cl)nc2)C1=N[N+](=O)[O-]` [Example 10], the “logP (pH = 2.3)” value is 1.64. The same compound returned a kill in data set [3] of 100%. In data set [4], this compound displayed a kill of 100%. The compound also returned a kill in data set [5] of 100%. In addition, the development-inhibitory effect in the data set on Lucilia cuprina larvae came out at 100%. Also, in data set [6], the kill is 100%.

`CCCCOCn1ccn(Cc2ccc(Cl)nc2)c1=N[N+](=O)[O-]` [Example 41]: the “logP (pH = 2.3)” value was 1.72.

Turning to `CCC(C)OCN1CCN(Cc2ccc(Cl)nc2)C1=N[N+](=O)[O-]` (stereo not shown) [Example 21], the “logP (pH = 2.3)” value was 1.86. The compound also gave a kill in data set [5] of 100%. The compound further had a kill in data set [6] of 100%.

For `CCCCCOCN1CCN(Cc2ccc(Cl)nc2)C1=N[N+](=O)[O-]` [Example 22], the “logP (pH = 2.3)” value is reported as 2.35.

On to `COCN1CCN(Cc2ccc(Cl)nc2)C1=NC#N` [Example 29], for which the “logP (pH = 2.3)” value came to 1.32.

For `CC(C)C(=O)OCN1CCN(Cc2ccc(Cl)nc2)C1=N[N+](=O)[O-]` [Example 36], the kill in data set [3], in [4], in data set [5] and in data set [6] was 100% throughout.

`CCCCCCCCOCn1ccn(Cc2ccc(Cl)nc2)c1=N[N+](=O)[O-]` [Example 7] displayed a kill in [2] of 100%.

For `COCCOCN1CCN(Cc2ccc(Cl)nc2)C1=N[N+](=O)[O-]` [Example 24], the “logP (pH = 2.3)” value came out at 1.16. The compound also displayed a kill in [6] of 100%.

As to `O=[N+]([O-])N=C1N(COCCBr)CCN1Cc1ccc(Cl)nc1` [Example 53], the “logP (pH = 2.3)” value was 1.64.

As to `CC(C)OCN1CCCN(Cc2ccc(Cl)nc2)C1=N[N+](=O)[O-]` [Example 56], the “logP (pH = 2.3)” value came to 1.34.

Take `O=[N+]([O-])/N=c1\n(COCCBr)ccn1Cc1ccc(Cl)nc1`: the melting point (commonly the temperature, or range, at which the solid turns liquid) in data set [7] lay in the range of 90 to 92 °C.

For the compound `CCCOCN1CCN(Cc2ccc(Cl)nc2)C1=NC#N` [Example 32], the “logP (pH = 2.3)” value is reported as 1.89.

In data set [7], `CC(C)OCN1CCN(Cc2ccc(Cl)nc2)C1=NC#N` registered a melting point of 85 to 87 °C.

In the case of `CCOCn1ccn(Cc2ccc(Cl)nc2)c1=N[N+](=O)[O-]` [Example 6], the “logP (pH = 2.3)” value is 1.09.

For the compound `CCCOCN1CCN(Cc2cnc(Cl)s2)C1=N[N+](=O)[O-]` [Example 2, 1-(2-chloro-thiazol-5-yl-methyl)-2-nitroimino-3-n-propoxymethyl-imidazolidine], the kill in [3] was 100%.
